The assay has as its target T1, CkoPE (Candidatus Korarchaeum cryptofilum, UniProt B1L4V6).
T1 sequence (B1L4V6 1-117): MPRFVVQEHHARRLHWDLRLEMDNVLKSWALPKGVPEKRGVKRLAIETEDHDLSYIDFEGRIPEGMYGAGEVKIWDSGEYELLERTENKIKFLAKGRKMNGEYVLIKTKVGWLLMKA
Nature of the assay: […]'-resection of […]-labelled D22R2 single strand, urea-PAGE. It is filed as biochemical.

The IC50 is the concentration that gives 50% inhibition. In the case of `O=P(O)(O)O` [phosphate], the IC50 was approximately 50 mM.

(Values after paper PMC3258152 (Nucleic Acids Research, 2011).)
